ChEMBL document CHEMBL3044789, “Comparing weed and crop seedling response to pre-emergence pendimethalin application in Corchorus olitorius and Abelmoschus esculentus” (Crop Prot, 2006)

Legend:
Ageratum conyzoides [1] = assay: Herbicidal activity against Ageratum conyzoides in Abelmoschus esculentus plots assessed as weed cover at 1.32 kg a.i/ha after 4 weeks (reference value: 22.6 +/- 0.49 %); type: functional
Synedrella nodiflora [2] = assay: Herbicidal activity against Synedrella nodiflora in Abelmoschus esculentus plots assessed as weed cover at 0.66 kg a.i/ha after 4 weeks (reference value: 22.6 +/- 0.49 %); type: functional
Calopogonium mucunoides [3] = assay: Herbicidal activity against Calopogonium mucunoides in Abelmoschus esculentus plots assessed as weed cover at 0.33 kg a.i/ha after 4 weeks (reference value: 22.6 +/- 0.49 %); type: functional
[4] = test system: Rottboellia cochinchinensis; assay: Herbicidal activity against Rottboellia cochinchinensis in Abelmoschus esculentus plots assessed as weed cover at 0.33 kg a.i/ha after 4 weeks (reference value: 22.6 +/- 0.49 %); type: functional
Euphorbia heterophylla [5] = assay: Herbicidal activity against Euphorbia heterophylla in Abelmoschus esculentus plots assessed as major weed growth at 0.66 kg a.i/ha after 2 weeks; type: functional
Synedrella nodiflora [6] = assay: Herbicidal activity against Synedrella nodiflora in Abelmoschus esculentus plots assessed as minor weed growth at 1.32 kg a.i/ha after 2 weeks; type: functional
Synedrella nodiflora [7] = assay: Herbicidal activity against Synedrella nodiflora in Abelmoschus esculentus plots assessed as major weed growth at 0.99 kg a.i/ha after 2 weeks; type: functional
[8] = test system: Rottboellia cochinchinensis; assay: Herbicidal activity against Rottboellia cochinchinensis in Abelmoschus esculentus plots assessed as major weed growth at 0.33 kg a.i/ha after 2 weeks; type: functional
Commelina diffusa = assay: Herbicidal activity against Commelina diffusa in Corchorus olitorius plots assessed as minor weed growth at 0.66 kg a.i/ha after 2 weeks; type: functional
Cyperus rotundus [9] = assay: Herbicidal activity against Cyperus rotundus in Corchorus olitorius plots assessed as minor weed growth at 0.66 kg a.i/ha after 2 weeks; type: functional
Calopogonium mucunoides [10] = assay: Herbicidal activity against Calopogonium mucunoides in Corchorus olitorius plots assessed as major weed growth at 1.32 kg a.i/ha after 2 weeks; type: functional
Euphorbia heterophylla [11] = assay: Herbicidal activity against Euphorbia heterophylla in Corchorus olitorius plots assessed as major weed growth at 0.66 kg a.i/ha after 2 weeks; type: functional
Euphorbia heterophylla [12] = assay: Herbicidal activity against Euphorbia heterophylla in Corchorus olitorius plots assessed as major weed growth at 0.33 kg a.i/ha after 2 weeks; type: functional
Synedrella nodiflora [13] = assay: Herbicidal activity against Synedrella nodiflora in Corchorus olitorius plots assessed as major weed growth at 0.99 kg a.i/ha after 2 weeks; type: functional
Ageratum conyzoides [14] = assay: Herbicidal activity against Ageratum conyzoides in Corchorus olitorius plots assessed as minor weed growth at 1.32 kg a.i/ha after 2 weeks; type: functional
Calopogonium mucunoides [15] = assay: Herbicidal activity against Calopogonium mucunoides in Abelmoschus esculentus plots assessed as weed cover at 0.99 kg a.i/ha after 7 weeks (reference value: 14.7 +/- 0.46 %); type: functional
Calopogonium mucunoides [16] = assay: Herbicidal activity against Calopogonium mucunoides in Abelmoschus esculentus plots assessed as weed cover at 0.33 kg a.i/ha after 7 weeks (reference value: 14.7 +/- 0.46 %); type: functional
Ageratum conyzoides [17] = assay: Herbicidal activity against Ageratum conyzoides in Corchorus olitorius plots assessed as weed recovery at 1.32 kg a.i/ha after 2 weeks (reference value: 78.3 +/- 0.74 %); type: functional
Ageratum conyzoides [18] = assay: Herbicidal activity against Ageratum conyzoides in Abelmoschus esculentus plots assessed as weed cover at 0.33 kg a.i/ha after 2 weeks (reference value: 63.5 +/- 0.29 %); type: functional
Abelmoschus esculentus [19] = assay: Phytotoxicity in Abelmoschus esculentus assessed as seedling emergence at 0.33 kg a.i/ha treated to soil after 7 weeks (reference value: 95 +/- 0.05 %); type: organism-based; details: in vivo, other, 1176 h
Corchorus olitorius [20] = assay: Phytotoxicity in Corchorus olitorius assessed as root length at 0.99 kg a.i/ha applied as solution after 7 weeks (reference value: 14.3 +/- 1.06 mm); type: organism-based; details: in vivo, other, 1176 h
Corchorus olitorius [21] = assay: Phytotoxicity in Corchorus olitorius assessed as seedling injury at 1.32 kg a.i/ha applied as solution after 7 weeks relative to control; type: organism-based; details: in vivo, other, 1176 h
Corchorus olitorius [22] = assay: Phytotoxicity in Corchorus olitorius assessed as seed germination at 0.66 kg a.i/ha applied as solution after 7 weeks relative to untreated control; type: organism-based; details: in vivo, other, 1176 h
Asteraceae = assay: Herbicidal activity against Aspilia africana in Corchorus olitorius plots assessed as weed recovery at 0.66 kg a.i/ha after 2 weeks (reference value: 78.3 +/- 0.74 %); type: functional
Synedrella nodiflora [23] = assay: Herbicidal activity against Synedrella nodiflora in Corchorus olitorius plots assessed as weed cover at 0.66 kg a.i/ha after 7 weeks (reference value: 1.7 +/- 0.56 %); type: functional
Ageratum conyzoides [24] = assay: Herbicidal activity against Ageratum conyzoides in Corchorus olitorius plots assessed as weed cover at 0.33 kg a.i/ha after 7 weeks (reference value: 1.7 +/- 0.56 %); type: functional
Euphorbia heterophylla [25] = assay: Herbicidal activity against Euphorbia heterophylla in Corchorus olitorius plots assessed as weed recovery at 0.33 kg a.i/ha after 2 weeks (reference value: 78.3 +/- 0.74 %); type: functional
Abelmoschus esculentus [26] = assay: Phytotoxicity in Abelmoschus esculentus assessed as seedling injury at 1.32 kg a.i/ha applied as solution after 7 weeks relative to control; type: organism-based; details: in vivo, other, 1176 h
Abelmoschus esculentus [27] = assay: Phytotoxicity in Abelmoschus esculentus assessed as shoot length at 0.66 kg a.i/ha applied as solution after 7 weeks (reference value: 28.7 +/- 0.34 mm); type: organism-based; details: in vivo, other, 1176 h
Calopogonium mucunoides [28] = assay: Herbicidal activity against Calopogonium mucunoides in Corchorus olitorius plots assessed as weed cover at 1.32 kg a.i/ha after 4 weeks (reference value: 20.1+/- 0.57 %); type: functional
Cyperus rotundus [29] = assay: Herbicidal activity against Cyperus rotundus in Corchorus olitorius plots assessed as weed cover at 0.66 kg a.i/ha after 4 weeks (reference value: 20.1+/- 0.57 %); type: functional
Euphorbia heterophylla [30] = assay: Herbicidal activity against Euphorbia heterophylla in Abelmoschus esculentus plots assessed as weed recovery at 1.32 kg a.i/ha after 2 weeks (reference value: 60.1 +/- 0.46 %); type: functional
Calopogonium mucunoides [31] = assay: Herbicidal activity against Calopogonium mucunoides in Abelmoschus esculentus plots assessed as weed recovery at 0.99 kg a.i/ha after 2 weeks (reference value: 60.1 +/- 0.46 %); type: functional
Synedrella nodiflora [32] = assay: Herbicidal activity against Synedrella nodiflora in Abelmoschus esculentus plots assessed as weed recovery at 0.66 kg a.i/ha after 2 weeks (reference value: 60.1 +/- 0.46 %); type: functional
Ageratum conyzoides [33] = assay: Herbicidal activity against Ageratum conyzoides in Corchorus olitorius plots assessed as weed cover at 1.32 kg a.i/ha after 4 weeks (reference value: 20.1+/- 0.57 %); type: functional
Synedrella nodiflora [34] = assay: Herbicidal activity against Synedrella nodiflora in Corchorus olitorius plots assessed as weed cover at 0.99 kg a.i/ha after 4 weeks (reference value: 20.1+/- 0.57 %); type: functional
Synedrella nodiflora [35] = assay: Herbicidal activity against Synedrella nodiflora in Corchorus olitorius plots assessed as weed cover at 0.33 kg a.i/ha after 4 weeks (reference value: 20.1+/- 0.57 %); type: functional
Ageratum conyzoides [36] = assay: Herbicidal activity against Ageratum conyzoides in Corchorus olitorius plots assessed as weed cover at 0.33 kg a.i/ha after 4 weeks (reference value: 20.1+/- 0.57 %); type: functional

Q: With `CCC(CC)Nc1c([N+](=O)[O-])cc(C)c(C)c1[N+](=O)[O-]` [PENDIMETHALIN] as the compound, how does the Activity (Ageratum conyzoides [1]) read?
A: 36.2%

Q: What about the Activity (Synedrella nodiflora [2]) of the same compound?
A: 47.9%

Q: What about the Activity (Calopogonium mucunoides [3]) of the same compound?
A: 53.8%

Q: What about the Activity [4] of the same compound?
A: 53.8%

Q: What about the Activity (Euphorbia heterophylla [5]) of the same compound?
A: 31 /m2

Q: What about the Activity (Synedrella nodiflora [6]) of the same compound?
A: 1 /m2

Q: What about the Activity (Synedrella nodiflora [7]) of the same compound?
A: 31 /m2

Q: And the Activity [8]?
A: 31 /m2

Q: And the Activity (Commelina diffusa)?
A: 1 /m2

Q: And the Activity (Cyperus rotundus [9])?
A: 1 /m2

Q: And the Activity (Calopogonium mucunoides [10])?
A: 31 /m2

Q: What about the Activity (Euphorbia heterophylla [11]) of the same compound?
A: 31 /m2

Q: What about the Activity (Euphorbia heterophylla [12]) of the same compound?
A: 31 /m2

Q: And the Activity (Synedrella nodiflora [13])?
A: 31 /m2

Q: And the Activity (Ageratum conyzoides [14])?
A: 1 /m2

Q: What about the Activity (Calopogonium mucunoides [15]) of the same compound?
A: 83.9%

Q: What about the Activity (Calopogonium mucunoides [16]) of the same compound?
A: 90%

Q: What about the Activity (Ageratum conyzoides [17]) of the same compound?
A: 13.3%

Q: What about the Activity (Ageratum conyzoides [18]) of the same compound?
A: 56.8%

Q: What about the Activity (Abelmoschus esculentus [19]) of the same compound?
A: 85%

Q: And the Activity (Corchorus olitorius [20])?
A: 2.5 mm

Q: And the Activity (Corchorus olitorius [21])?
A: 66.7%

Q: What about the Activity (Corchorus olitorius [22]) of the same compound?
A: 84.7%

Q: What about the Activity (Asteraceae) of the same compound?
A: 33.3%

Q: And the Activity (Synedrella nodiflora [23])?
A: 100%

Q: And the Activity (Ageratum conyzoides [24])?
A: 100%

Q: And the Activity (Euphorbia heterophylla [25])?
A: 31.7%

Q: What about the Activity (Abelmoschus esculentus [26]) of the same compound?
A: 56.8%

Q: And the Activity (Abelmoschus esculentus [27])?
A: 14.7 mm

Q: And the Activity (Calopogonium mucunoides [28])?
A: 33.3%

Q: What about the Activity (Cyperus rotundus [29]) of the same compound?
A: 63.3%

Q: And the Activity (Euphorbia heterophylla [30])?
A: 33.2%

Q: And the Activity (Calopogonium mucunoides [31])?
A: 36.2%

Q: What about the Activity (Synedrella nodiflora [32]) of the same compound?
A: 47.9%

Q: What about the Activity (Ageratum conyzoides [33]) of the same compound?
A: 33.3%

Q: And the Activity (Synedrella nodiflora [34])?
A: 48.3%

Q: And the Activity (Synedrella nodiflora [35])?
A: 73.3%

Q: What about the Activity (Ageratum conyzoides [36]) of the same compound?
A: 73.3%
